Experimental data taken from the NIST ThermoML archive (doi:10.1016/j.tca.2011.01.039).
± gives the expanded uncertainty stated by the source.

Settings: Fluid (supercritical or subcritical phases)

With `O=C=O` [carbon dioxide] the mass density (308 K, 10000 kPa) was 714.84 ± 7.1 kg/m3, the mass density (308 K, 12000 kPa) was 768.42 ± 5.7 kg/m3 and the mass density (308 K, 15000 kPa) was 816.06 ± 5.3 kg/m3. The mass density (308 K, 18000 kPa) was 848.87 ± 5.2 kg/m3, the mass density (308 K, 21000 kPa) was 874.4 ± 5.2 kg/m3 and the mass density (318 K, 10000 kPa) was 502.57 ± 9.6 kg/m3. It also gave a mass density (318 K, 12000 kPa) of 659.73 ± 7.3 kg/m3, a mass density (318 K, 15000 kPa) of 743.17 ± 5.7 kg/m3 and a mass density (318 K, 18000 kPa) of 790.18 ± 5.3 kg/m3. The mass density (318 K, 21000 kPa) was 823.71 ± 5.2 kg/m3, the mass density (328 K, 10000 kPa) was 326.4 ± 11 kg/m3 and the mass density (328 K, 12000 kPa) was 506.85 ± 9 kg/m3. For the same molecule, the mass density (328 K, 15000 kPa) was 654.94 ± 6.6 kg/m3, the mass density (328 K, 18000 kPa) was 724.13 ± 5.5 kg/m3 and the mass density (328 K, 21000 kPa) was 768.74 ± 5.3 kg/m3.
